In experiment [1] the target is bee venom phospholipase A2 (Apis mellifera, UniProt P00630). Nature of the experiment: biochemical. As to conditions: read-out: PLA2 IC50.
In experiment [2] the target is phosphoinositide-specific phospholipase C. Nature of the experiment: Inhibition of phosphoinositide-specific phospholipase C (PLC). Format: biochemical. As to conditions: procedure of Bennett et al, Molecular Pharmacology 32:587-593 (1987). From the text: Inhibition of Phosphoinositide-specific Phospholipase C
The effect of compounds of this invention on phosphoinositide-specific phospholipase C may be determined by procedures described by Bennett et al, Molecular Pharmacology 32:587-593 (1987).

In patent US5171864A, “Di-(5-hydroxy-2(5H)-2-oxo-4-furyl)methyl-alpha,omega alkane-dioates and N,N-bis-(5-hydroxy-2(5H)-2-oxo-4-furyl)methyl-alpha,omega-dialkanoic acid amides as anti-inflammatory agents” (Allergan, Inc., priority 1991, dated 1992) one finds IC50 data, which are given here for 5 compounds.

SMILES strings stand for the structures. Like-named read-outs stand apart in the source and are kept apart here.

bee venom phospholipase A2, sequence (P00630 34-167 limits assumed): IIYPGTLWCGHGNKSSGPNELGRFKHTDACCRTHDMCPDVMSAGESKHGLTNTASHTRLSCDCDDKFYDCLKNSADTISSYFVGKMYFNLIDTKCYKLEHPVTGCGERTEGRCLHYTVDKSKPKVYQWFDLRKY

Regarding `O=C1C=C(COC(=O)CCCCCCCCCCC(=O)OCC2=CC(=O)OC2O)C(O)O1` (stereo not shown) [Compound 1, Di-[5-hydroxy-2(5H)-2-oxo-4-furyl]methyl dodecan-1,12-dioate], the values for the 50% inhibitory concentration (IC50) in experiment [1] and in experiment [2] were 70 nM and > 100 µM, respectively.

As to `CC(C)(C)C(=O)OC1OC(=O)C=C1COC(=O)CCCCCCCCCCC(=O)OCC1=CC(=O)OC1OC(=O)C(C)(C)C` (stereo not shown) [Compound 2, Di-[5tert-butanoyloxy-2(5H)-furano-4yl]methyl dodecan-1,12-dioate], the values for the IC50 in experiment [1] (pH 7.4) and in experiment [2] were > 1000 nM and > 100 µM, respectively.

Turning to `O=C(CCCCCCCCCCC(=O)NCC1=CC(=O)OC1O)NCC1=CC(=O)OC1O` (stereo not shown) [Compound 3, N,N'-Bis(5-hydroxy-2(5H)-2-oxo-4-furyl)methyl-1,12-dodecanoic acid amide], the IC50 was 30 nM in experiment [1] and > 100 µM in experiment [2].

On to `O=C(CCCCCCCCCCC(=O)NCC1=CC(=O)OC1OC(=O)Nc1ccccc1)NCC1=CC(=O)OC1O` (stereo not shown) [Compound 4, N-(5-Hydroxy-2(5H)2-oxo-4-furyl)methyl-N'-(5-phenylcarbamoyloxy-2(5H) 2-oxo-4-furyl)methyl-1,12-dodecanamide], for which the IC50 in experiment [1] (pH 7.4) is > 1000 nM; in experiment [2], > 100 µM.

`O=C(CCCCCCCCCCC(=O)NCC1=CC(=O)OC1OC(=O)Nc1ccccc1)NCC1=CC(=O)OC1OC(=O)Nc1ccccc1` (stereo not shown) [Compound 5, N,N'-bis(5-phenylcarbamoyloxy-2(5H)2-oxo-4-furyl)methyl-1.12-dodeca]: the figures for the IC50 in experiment [1] (pH 7.4) and in experiment [2] were > 1000 nM and > 100 µM, respectively.

The IC50 is the point on the concentration scale where inhibition reaches its midpoint.
